{"source": "patent US9120728B2", "about": "“Modulators of cortical dopaminergic- and NMDA-receptor-mediated glutamatergic neurotransmission” (INTEGRATIVE RESEARCH LABORATORIES SWEDEN AB, priority 2011, dated 2015)", "key": {"drug-naive rats": {"system": "drug-naive rats", "test": "Effects on spontaneous locomotion (locomotor activity in drug-naive rats)", "type": "in vivo, rat", "conditions": "recorded for 60 minutes immediately after drug administration", "method": "Prior art dopamine receptor antagonists are known to induce profound decrease in locomotor activity (catalepsy).\nBehavioural activity is measured using eight Digiscan activity monitors (RXYZM (16) TAO, Omnitech Electronics, Columbus, Ohio, USA), connected to an Omnitech Digiscan analyzer and an Apple Macintosh computer equipped with a digital interface board (NB DIO-24, National Instruments, USA). Each activity monitor consists of a quadratic metal frame (W×L=40 cm×40 cm) equipped with photobeam sensors. During measurements of behavioural activity, a rat is put in a transparent acrylic cage (WxLxH, 40×40×30 cm) which in turn is placed in the activity monitor. Each activity monitor is equipped with three rows of infrared photobeam sensors, each row consisting of 16 sensors. Two rows are placed along the front and the side of the floor of the cage, at a 90° angle, and the third row is placed 10 cm above the floor to measure vertical activity. Photobeam sensors are spaced 2.5 cm apart. Each activity monitor is fitted in an identical sound and light attenuating box containing a weak house light and a fan.\nThe computer software is written using object oriented programming (LabVIEW®, National instruments, Austin, Tex., USA).\nBehavioural data from each activity monitor, representing the position (horizontal center of gravity and vertical activity) of the animal at each time, are recorded at a sampling frequency of 25 Hz and collected using a custom written LABView™ application. The data from each recording session are stored and analyzed with respect to distance traveled. Each behavioural recording session lasts 60 min, starting approximately 4 min after the injection of test compound. Similar behavioural recording procedures are applied for drug-naïve and drug pre-treated rats. Rats pre-treated with d-amphetamine are given a dose of 1.5 mg/kg i.p. 10 min before the recording session in the activity monitor. Rats pre-treated with MK-801 are given a dose of 0.7 mg/kg i.p. 90 min before the recording session in the activity monitor. The results are presented as counts/60 minutes, or counts/30 minutes, in arbitrary length units. Statistical comparisons are carried out using Student's t-test against the control group. In MK-801 or amphetamine pre-treated animals, statistical comparisons are made against the MK801 or d-amphetamine controls, respectively."}, "[1]": {"system": "DOPAC (3,4-dihydroxyphenylacetic acid) in the rat striatum", "test": "Increase of DOPAC (3,4-dihydroxyphenylacetic acid) in the rat striatum after systemic administration", "type": "in vivo", "conditions": "sc, estimated ED50 on increase of DOPAC in rat striatum, dose range 0-100 μmol/kg s.c., curve fitting", "from_the_text": "The increased turnover of dopamine in the terminal areas of the ascending dopaminergic projections of the mammalian brain can be illustrated by measuring of changes in biochemical indices in the brain with the characteristic features of dopamine antagonists, e.g. producing increases in concentrations of dopamine metabolites such as 3,4-dihydroxyphenyl-acetic acid (DOPAC) in the striatum.\nAfter the behavioural activity sessions, the rats are decapitated and their brains rapidly taken out and put on an ice-cold petri-dish. The limbic forebrain, the striatum, the frontal cortex and the remaining hemispheral parts of each rat are dissected and frozen. Each brain part is subsequently analyzed with respect to its content of monoamines and their metabolites.\nThe monoamine transmitter substances (NA (noradrenaline), DA (dopamine), 5-HT (serotonin)) as well as their amine (NM (normethanephrine), 3-MT (3-methoxytyramine)) and acid (DOPAC (3,4-dihydroxyphenylacetic acid), 5-HIAA (5-hydroxyindoleacetic acid), HVA (homovanillic acid)) metabolites are quantified in brain tissue homogenates by HPLC separations and electrochemical detection\nThe analytical method is based on two chromatographic separations dedicated for amines or acids. Two chromatographic systems share a common auto injector with a 10-port valve and two sample loops for simultaneous injection on the two systems. Both systems are equipped with a reverse phase column (Luna C18(2), dp 3 μm, 50×2 mm i.d., Phenomenex) and electrochemical detection is accomplished at two potentials on glassy carbon electrodes (MF-1000, Bioanalytical Systems, Inc.). The column effluent is passed via a T-connection to the detection cell or to a waste outlet. This is accomplished by two solenoid valves, which block either the waste or detector outlet. By preventing the chromatographic front from reaching the detector, better detection conditions are achieved. The aqueous mobile phase (0.4 ml/min) for the acid system contains citric acid 14 mM, sodium citrate 10 mM, MeOH 15% (v/v) and EDTA 0.1 mM. Detection potentials relative to Ag/AgCl reference are 0.45 and 0.60V. […] Detection potentials relative to Ag/AgCl reference are 0.45 and 0.65V.\nED50 value for the increase of DOPAC in striatum is calculated by curve fitting. The evaluation is based on 40 animals over the dose range 0, 3.7, 11, 33 and 100 μmol/kg s.c. in two combined experiments. The DOPAC levels are normalised to control and fitted by least square minimization to the function “End-(End-Control)/(1+(dose/ED50)^slope)”. The four parameters (Control, End, ED50 and Slope) are fitted with the restrictions: ED50>0, 0.5<Slope<3, 350<End<400% of control. To estimate confidence levels for the parameters, the fit is repeated 100 times with a random evenly distributed squared weight (0 to 1) for every measurement value. Presented ED50-ranges cover 95% of these values."}, "MK-801 pre-treated rats": {"system": "MK-801 pre-treated rats", "test": "Reduction of MK-801-induced hyper-locomotion", "type": "in vivo", "conditions": "Rattus norvegicus; MK-801 0.7 mg/kg i.p. 90 minutes before test compound; locomotor activity between 45 and 60 minutes after administration; 0-100 μmol/kg s.c.", "from_the_text": "Reduction of MK-801-Induced Hyper-Locomotion Another animal model of antipsychotic activity is based on administration of the glutamate antagonist MK-801. Glutamate antagonists (i.e. NMDA antagonists), can induce psychoses in man (see Psychopharmacology, 4th Generation of progress Chapter 101, p. 1205 and 1207) and induce behavioural aberrations in animals. Thus, the ability of a drug to affect schizophrenia and psychotic states can be measured using behavioural models based on experimentally-induced hypoglutamatergic states. In this study the NMDA antagonist MK-801 (0.7 mg/kg i.p.) was used to create a hypoglutamatergic state where the rats display abnormal, hyperactive behaviour.\n(§1) Behavioural activity is measured using eight Digiscan activity monitors (RXYZM (16) TAO, Omnitech Electronics, Columbus, Ohio, USA), connected to an Omnitech Digiscan analyzer and an Apple Macintosh computer equipped with a digital interface board (NB DIO-24, National Instruments, USA). […]\n(§2) Behavioural data from each activity monitor, representing the position (horizontal center of gravity and vertical activity) of the animal at each time, are recorded at a sampling frequency of 25 Hz and collected using a custom written LABView™ application. The data from each recording session are stored and analyzed with respect to distance traveled. […]"}, "[2]": {"system": "d-amphetamine pre-treated rats", "test": "Reduction of amphetamine-induced hyper-locomotion", "type": "in vivo", "conditions": "Rattus norvegicus; rats pre-treated with d-amphetamine 1.5 mg/kg i.p.; test compound 0-100 μmol/kg s.c.; distance during last 45 minutes of one hour", "from_the_text": "The increase in activity after treatment with d-amphetamine is a standard model of hyperdopaminergia. In this model, dopaminergic neurotransmission is increased by systemic administration of d-amphetamine at a dose that is sufficiently high to produce a large increase in locomotor activity. The ability of a compound to antagonize this hyperactivity reflects anti-dopaminergic properties. Furthermore, antagonism of d-amphetamine induced hyperactivity is widely used as a standard assay of antipsychotic activity (see Psychopharmacology 4th Generation of progress Chapter 68, p 793-795).\nas §1, §2\nED50 value for reduction of amphetamine-induced hyper-locomotion is calculated by curve fitting. […]"}}, "note": "Structures can show the parent of a compound that is named as a salt."}
{"smiles": "CCC(C)NCCOc1cc(F)cc(S(C)(=O)=O)c1", "note": "(stereo not drawn) (as salt: hydrochloric acid salt) [Example 5, N-[2-(3-fluoro-5-methylsulfonyl-phenoxy)ethyl]butan-2-amine]", "values": [{"measurement": "melting point", "value": 166.5, "unit": "°C"}]}
{"smiles": "CCCCNCCOc1cc(F)cc(S(C)(=O)=O)c1", "note": "(as salt: hydrochloric acid salt) [Example 2, N-[2-(3-fluoro-5-methylsulfonyl-phenoxy)ethyl]butan-1-amine]", "values": [{"measurement": "melting point", "value": 204, "unit": "°C"}]}
{"smiles": "CCCNCCOc1cc(Cl)cc(S(C)(=O)=O)c1", "note": "(as salt: hydrochloric acid salt) [Example 12, N-[2-(3-chloro-5-methylsulfonyl-phenoxy)ethyl]propan-1-amine]", "values": [{"measurement": "melting point", "value": "195 to 197", "unit": "°C"}]}
{"smiles": "CS(=O)(=O)c1cc(F)cc(OCCNC2CCCC2)c1", "note": "(as salt: hydrochloric acid salt) [Example 6, N-[2-(3-fluoro-5-methylsulfonyl-phenoxy)ethyl]cyclopentanamine]", "values": [{"measurement": "melting point", "value": 207.5, "unit": "°C"}]}
{"smiles": "CS(=O)(=O)c1cc(F)cc(OCCN2CCCCC2)c1", "note": "(as salt: hydrochloric acid salt) [Example 10, 1-[2-(3-fluoro-5-methylsulfonyl-phenoxy)ethyl]piperidine]", "values": [{"measurement": "melting point", "value": 194.6, "unit": "°C"}]}
{"smiles": "CCCCNCCOc1cc(F)cc(S(C)(=O)=O)c1", "note": "[Example 2, N-[2-(3-fluoro-5-methylsulfonyl-phenoxy)ethyl]butan-1-amine]", "values": [{"measurement": "Locomotor activity", "setting": "drug-naive rats; 3.7 μmol/kg", "value": 13941, "unit": "counts/60 min"}, {"measurement": "Locomotor activity", "setting": "drug-naive rats; 11 μmol/kg", "value": 8617, "unit": "counts/60 min"}, {"measurement": "Locomotor activity", "setting": "drug-naive rats; 33 μmol/kg", "value": 6325, "unit": "counts/60 min"}, {"measurement": "ED50", "setting": "[1]", "value": 4.2, "unit": "µmol/kg"}]}
{"smiles": "CS(=O)(=O)c1cc(F)cc(OCCN2CCCCC2)c1", "note": "[Example 10, 1-[2-(3-fluoro-5-methylsulfonyl-phenoxy)ethyl]piperidine]", "values": [{"measurement": "Locomotor activity", "setting": "drug-naive rats; 3.7 μmol/kg", "value": 11979, "unit": "counts/60 min"}, {"measurement": "Locomotor activity", "setting": "drug-naive rats; 11 μmol/kg", "value": 9344, "unit": "counts/60 min"}, {"measurement": "Locomotor activity", "setting": "drug-naive rats; 33 μmol/kg", "value": 8144, "unit": "counts/60 min"}, {"measurement": "ED50", "setting": "[1]", "value": 14.5, "unit": "µmol/kg"}]}
{"smiles": "CS(=O)(=O)c1cc(F)cc(OCCNC2CCC2)c1", "note": "[Example 8, N-[2-(3-fluoro-5-methylsulfonyl-phenoxy)ethyl]cyclobutanamine]", "values": [{"measurement": "Locomotor activity", "setting": "drug-naive rats; 3.7 μmol/kg", "value": 10319, "unit": "counts/60 min"}, {"measurement": "Locomotor activity", "setting": "drug-naive rats; 11 μmol/kg", "value": 12888, "unit": "counts/60 min"}, {"measurement": "Locomotor activity", "setting": "drug-naive rats; 33 μmol/kg", "value": 12872, "unit": "counts/60 min"}, {"measurement": "ED50", "setting": "[1]", "value": 36, "unit": "µmol/kg"}, {"measurement": "ED50", "setting": "MK-801 pre-treated rats", "value": 40, "unit": "µmol/kg"}]}
{"smiles": "CCCN(C)CCOc1cc(F)cc(S(C)(=O)=O)c1", "note": "(as salt: hydrochloric acid salt) [Example 4, N-[2-(3-fluoro-5-methylsulfonyl-phenoxy)ethyl]-N-methyl-propan-1-amine]", "values": [{"measurement": "melting point", "value": "128 to 130", "unit": "°C"}]}
{"smiles": "CCNCCOc1cc(F)cc(S(C)(=O)=O)c1", "note": "(as salt: hydrochloric acid salt) [Example 3, N-ethyl-2-(3-fluoro-5-methylsulfonyl-phenoxy)ethanamine]", "values": [{"measurement": "melting point", "value": "200.8 to 201.1", "unit": "°C"}]}
{"smiles": "CC(C)NCCOc1cc(F)cc(S(C)(=O)=O)c1", "note": "(as salt: hydrochloric acid salt) [Example 9, N-[2-(3-fluoro-5-methylsulfonyl-phenoxy)ethyl]propan-2-amine]", "values": [{"measurement": "melting point", "value": 173, "unit": "°C"}]}
{"smiles": "CS(=O)(=O)c1cc(F)cc(OCCNC2CCC2)c1", "note": "(as salt: hydrochloric acid salt) [Example 8, N-[2-(3-fluoro-5-methylsulfonyl-phenoxy)ethyl]cyclobutanamine]", "values": [{"measurement": "melting point", "value": 202, "unit": "°C"}]}
{"smiles": "CCCN(C)CCOc1cc(F)cc(S(C)(=O)=O)c1", "note": "[Example 4, N-[2-(3-fluoro-5-methylsulfonyl-phenoxy)ethyl]-N-methyl-propan-1-amine]", "values": [{"measurement": "Locomotor activity", "setting": "drug-naive rats; 3.7 μmol/kg", "value": 11435, "unit": "counts/60 min"}, {"measurement": "Locomotor activity", "setting": "drug-naive rats; 11 μmol/kg", "value": 10025, "unit": "counts/60 min"}, {"measurement": "Locomotor activity", "setting": "drug-naive rats; 33 μmol/kg", "value": 12829, "unit": "counts/60 min"}, {"measurement": "ED50", "setting": "[1]", "value": 28.1, "unit": "µmol/kg"}, {"measurement": "ED50", "setting": "[2]", "value": 69, "unit": "µmol/kg"}]}
{"smiles": "CCN(CC)CCOc1cc(F)cc(S(C)(=O)=O)c1", "note": "(as salt: hydrochloric acid salt) [Example 11, N,N-diethyl-2-(3-fluoro-5-methylsulfonyl-phenoxy)ethanamine]", "values": [{"measurement": "melting point", "value": 172.3, "unit": "°C"}]}
{"smiles": "CCCNCCOc1cc(Cl)cc(S(C)(=O)=O)c1", "note": "[Example 12, N-[2-(3-chloro-5-methylsulfonyl-phenoxy)ethyl]propan-1-amine]", "values": [{"measurement": "Locomotor activity", "setting": "drug-naive rats; 3.7 μmol/kg", "value": 14414, "unit": "counts/60 min"}, {"measurement": "Locomotor activity", "setting": "drug-naive rats; 11 μmol/kg", "value": 12740, "unit": "counts/60 min"}, {"measurement": "Locomotor activity", "setting": "drug-naive rats; 33 μmol/kg", "value": 7826, "unit": "counts/60 min"}, {"measurement": "ED50", "setting": "[1]", "value": 10.5, "unit": "µmol/kg"}]}
{"smiles": "CCC(C)(C)NCCOc1cc(F)cc(S(C)(=O)=O)c1", "note": "(as salt: hydrochloric acid salt) [Example 7, N-[2-(3-fluoro-5-methylsulfonyl-phenoxy)ethyl]-2-methyl-butan-2-amine]", "values": [{"measurement": "melting point", "value": 190.2, "unit": "°C"}]}
